Reference: patent US10316017B2, “COT modulators and methods of use thereof” (Gilead Sciences, Inc., priority 2015, dated 2019)

Columns and labels:
[1] = molecular target: T1, human Cot catalytic domain (30-397 amino acids) (Homo sapiens, UniProt P41279); assay: High Throughput Cot Biochemical Assay (KinEASE TR-FRET); settings: Cot biochemical HTRF (KinEASE TR-FRET) assay; read-out: IC50 HTRF
T1 construct: Purified recombinant human Cot catalytic domain (30-397 amino acids) was purchased from Cama Biosciences; purchased Cama Biosciences (so in the source)
Method in brief: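 Phosphorylation of 1 μM XL665-STK3 peptide by 5 nM Cot catalytic domain was measured by time-resolved FRET using a europium […] antibody. ATP was 400 μM; buffer was 10 mM MOPS pH 7.0 with Mg2+ and DTT.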

[2] = system: TNFα production in LPS-stimulated human monocytes; assay: Cot Monocyte TNFα Cell Based Assay; settings: Homo sapiens, Monocyte, TNFα in LPS-stimulated human monocytes; read-out: EC50 TNF
Method in brief: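 Percent-of-control values derive from TR-FRET ratios of TNFα in spun-down media, referenced to unstimulated and LPS-stimulated wells. Exposure: 1 h compound preincubation, then 50 pg/ml LPS for 4 h, both at 37 °C, with 0.5% final DMSO.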

T1 sequence (P41279 30-397): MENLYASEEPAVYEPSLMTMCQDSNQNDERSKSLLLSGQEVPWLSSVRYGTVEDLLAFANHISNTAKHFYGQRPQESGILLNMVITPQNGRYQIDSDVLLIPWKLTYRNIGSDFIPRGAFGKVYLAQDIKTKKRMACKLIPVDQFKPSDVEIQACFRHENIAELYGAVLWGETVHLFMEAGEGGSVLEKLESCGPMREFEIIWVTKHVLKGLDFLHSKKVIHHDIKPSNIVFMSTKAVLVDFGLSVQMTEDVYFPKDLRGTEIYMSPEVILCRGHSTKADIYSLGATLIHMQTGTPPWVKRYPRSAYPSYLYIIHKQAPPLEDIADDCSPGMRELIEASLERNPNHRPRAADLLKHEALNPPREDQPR

IC50 [1] [nM]	EC50 [2] [nM]	Structure (SMILES)
2	111	CN(C)C(=O)c1cccc([C@H](Nc2cc(Cl)c3ncc(C#N)c(Nc4ccc(Cl)c(Cl)c4F)c3c2)c2cn(C3CCN(C(C)(C)C)CC3)nn2)c1 [Example 572, (S)-3-((1-(1-(tert-butyl)piperidin-4-yl)-1H-1,2,3-triazol-4-yl)((8-chloro-3-cyano-4-((3,4-dichloro-2-fluorophenyl)amino)quinolin-6-yl)amino)methyl)-N,N-dimethylbenzamide]
10	462	CN(C)C(=O)c1cccc([C@H](Nc2cc(Cl)c3ncc(C#N)c(Nc4ccc(Cl)c(Cl)c4F)c3c2)c2c[nH]nn2)c1 [Example 573, (S)-3-(((8-chloro-3-cyano-4-((3,4-dichloro-2-fluorophenyl)amino)quinolin-6-yl)amino)(1H-1,2,3-triazol-4-yl)methyl)-N,N-dimethylbenzamide]
42	161	N#Cc1cnc2c(Cl)cc(N[C@@H](c3ccccc3)c3cn(C4C5CN(C6COC6)CC54)nn3)cc2c1Nc1ccc(F)c(Cl)c1 (stereo partly drawn) [Example 574, 8-chloro-4-((3-chloro-4-fluorophenyl)amino)-6-(((1S)-(1-(3-(oxetan-3-yl)-3-azabicyclo[3.1.0]hexan-6-yl)-1H-1,2,3-triazol-4-yl)(phenyl)methyl)amino) quinoline-3-carbonitrile]
10	429	N#Cc1cnc2c(Cl)cc(N[C@@H](c3cccc(CN4CCCC4)c3)c3c[nH]nn3)cc2c1Nc1ccc(F)c(Cl)c1 [Example 575, (S)-8-chloro-4-((3-chloro-4-fluorophenyl)amino)-6-(((3-(pyrrolidin-1-ylmethyl)phenyl) (1H-1,2,3-triazol-4-yl)methyl)amino)quinoline-3-carbonitrile]
2	72	CCN1CC2C(C1)C2n1cc([C@@H](Nc2cc(Cl)c3ncc(C#N)c(Nc4ccc(F)c(Cl)c4)c3c2)c2ccccc2)nn1 (stereo partly drawn) [Example 576, 8-chloro-4-((3-chloro-4-fluorophenyl)amino)-6-(((1S)-(1-(3-ethyl-3-azabicyclo[3.1.0]hexan-6-yl)-1H-1,2,3-triazol-4-yl)(phenyl)methyl)amino) quinoline-3-carbonitrile]
3	38	N#Cc1cnc2c(Cl)cc(N[C@@H](c3ccccc3)c3cn(C4C5CNCC54)nn3)cc2c1Nc1ccc(F)c(Cl)c1 (stereo partly drawn) [Example 577, 6-(((1S)-(1-(3-azabicyclo[3.1.0]hexan-6-yl)-1H-1,2,3-triazo1-4-yl)(phenyl)methyl)amino)-8-chloro-4-((3-chloro-4-fluorophenyl)amino)quinoline-3-carbonitrile]
13	2150	C[C@@H](Nc1c(C#N)cnc2c(Cl)cc(N[C@@H](c3cccc(C(=O)N(C)C)c3)c3c[nH]nn3)cc12)c1ccccc1 [Example 578, 3-((S)-((8-chloro-3-cyano-4-(((R)-1-phenylethyl)amino)quinolin-6-yl)amino)(1H-1,2,3-triazol-4-yl)methyl)-N,N-dimethylbenzamide]
8	713	CC(C)n1cc([C@@H](Nc2cc(Cl)c3ncc(C#N)c(N[C@H](C)c4ccccc4)c3c2)c2cccc(C(=O)N(C)C)c2)nn1 [Example 579, 3-((S)-((8-chloro-3-cyano-4-(((R)-1-phenylethyl)amino)quinolin-6-yl)amino)(1-isopropyl-1H-1,2,3-triazol-4-yl)methyl)-N,N-dimethylbenzamide]
287	1590	CC(C)(C)N1CCC(n2cc([C@@H](Nc3cc(Cl)c4ncc(C#N)c(NN5CCOCC5)c4c3)c3ccccc3)nn2)CC1 [Example 580, (S)-6-(((1-(1-(tert-butyl)piperidin-4-yl)-1H-1,2,3-triazol-4-yl)(phenyl)methyl)amino)-8-chloro-4-(morpholinoamino)quinoline-3-carbonitrile]
333	4220	CC(C)(C)N1CCC(n2cc([C@@H](Nc3cc(Cl)c4ncc(C#N)c(N[C@H]5CCc6ccccc65)c4c3)c3ccccc3)nn2)CC1 [Example 581, 6-(((S)-(1-(1-(tert-butyl)piperidin-4-yl)-1H-1,2,3-triazol-4-yl)(phenyl)methyl)amino)-8-chloro-4-(((S)-2,3-dihydro-1H-inden-1-yl)amino)quinoline-3-carbonitrile]
1000	4360	CC(C)(C)N1CCC(n2cc([C@@H](Nc3cc(Cl)c4ncc(C#N)c(N[C@@H]5CCc6ccccc65)c4c3)c3ccccc3)nn2)CC1 [Example 583, 6-(((S)-(1-(1-(tert-butyl)piperidin-4-yl)-1H-1,2,3-triazol-4-yl)(phenyl)methyl)amino)-8-chloro-4-(((R)-2,3-dihydro-1H-inden-1-yl)amino)quinoline-3-carbonitrile]
10	403	CC(C)(C)N1CCC(n2cc([C@@H](Nc3cc(Cl)c4ncc(C#N)c(Nc5cnc(F)c(F)c5)c4c3)c3ccccc3)nn2)CC1 [Example 584, (S)-6-(((1-(1-(tert-butyl)piperidin-4-yl)-1H-1,2,3-triazol-4-yl)(phenyl)methyl)amino)-8-chloro-4-((5,6-difluoropyridin-3-yl)amino)quinoline-3-carbonitrile]
16	427	Cc1ccccc1[C@@H](C)Nc1c(C#N)cnc2c(Cl)cc(N[C@@H](c3ccccc3)c3cn(C4CCN(C(C)(C)C)CC4)nn3)cc12 [Example 585, 6-(((S)-(1-(1-(tert-butyl)piperidin-4-yl)-1H-1,2,3-triazol-4-yl)(phenyl)methyl)amino)-8-chloro-4-(((R)-1-(o-tolyl)ethyl)amino)quinoline-3-carbonitrile]
892	8560	CC[C@H](C)Nc1c(C#N)cnc2c(Cl)cc(N[C@@H](c3ccccc3)c3cn(C(C)C)nn3)cc12 [Example 586, 4-(((S)-sec-butyl)amino)-8-chloro-6-(((S)-(1-isopropyl-1H-1,2,3-triazol-4-yl)(phenyl)methyl)amino) quinoline-3-carbonitrile]
144	3900	CC[C@H](C)Nc1c(C#N)cnc2c(Cl)cc(N[C@@H](c3ccccc3)c3cn(C4CCN(C(C)(C)C)CC4)nn3)cc12 [Example 587, 4-(((S)-sec-butyl)amino)-6-(((S)-(1-(1-(tert-butyl)piperidin-4-yl)-1H-1,2,3-triazol-4-yl)(phenyl)methyl)amino)-8-chloroquinoline-3-carbonitrile]
17	1020	CC(C)n1cc([C@@H](Nc2cc(Cl)c3ncc(C#N)c(N[C@H](C)c4ccccc4)c3c2)c2ccccc2)nn1 [Example 588, 8-chloro-6-(((S)-(1-isopropyl-1H-1,2,3-triazol-4-yl)(phenyl)methyl)amino)-4-(((R)-1-phenylethyl)amino) quinoline-3-carbonitrile]
480	8440	CC[C@@H](C)Nc1c(C#N)cnc2c(Cl)cc(N[C@@H](c3ccccc3)c3cn(C(C)C)nn3)cc12 [Example 589, 4-(((R)-sec-butyl)amino)-8-chloro-6-(((S)-(1-isopropyl-1H-1,2,3-triazol-4-yl)(phenyl)methyl)amino)quinoline-3-carbonitrile]
131	3520	CC[C@@H](C)Nc1c(C#N)cnc2c(Cl)cc(N[C@@H](c3ccccc3)c3cn(C4CCN(C(C)(C)C)CC4)nn3)cc12 [Example 590, 4-(((R)-sec-butyl)amino)-6-(((S)-(1-(1-(tert-butyl)piperidin-4-yl)-1H-1,2,3-triazol-4-yl)(phenyl)methyl)amino)-8-chloroquinoline-3-carbonitrile]
27	713	CC(C)n1cc([C@@H](Nc2cc(Cl)c3ncc(C#N)c(Nc4cccc(Cl)c4F)c3c2)c2ccccc2)nn1 [Example 591, (S)-8-chloro-4-((3-chloro-2-fluorophenyl)amino)-6-(((1-isopropyl-1H-1,2,3-triazol-4-yl)(phenyl)methyl)amino) quinoline-3-carbonitrile]
7	352	CC[C@@H](Nc1c(C#N)cnc2c(Cl)cc(N[C@@H](c3ccccc3)c3cn(C(C)C)nn3)cc12)c1ccccc1 [Example 592, 8-chloro-6-(((S)-(1-isopropyl-1H-1,2,3-triazol-4-yl)(phenyl)methyl)amino)-4-(((R)-1-phenylpropyl)amino)quinoline-3-carbonitrile]
1	147	CC1CCN1C(=O)c1cccc([C@H](Nc2cc(Cl)c3ncc(C#N)c(Nc4ccc(F)c(Cl)c4)c3c2)c2cn(C3CCN(C(C)(C)C)CC3)nn2)c1 (stereo partly drawn) [Example 593, 6-(((1S)-(1-(1-(tert-butyl)piperidin-4-yl)-1H-1,2,3-triazol-4-yl)(3-(2-methylazetidine-1-carbonyl)phenyl)methyl)amino)-8-chloro-4-((3-chloro-4-fluorophenyl)amino)quinoline-3-carbonitrile]
1	1720	CC(C)(C)N1CCC(n2cc([C@@H](Nc3cc(Cl)c4ncc(C#N)c(Nc5ccc(F)c(Cl)c5)c4c3)c3cccc(C(=O)N4CC(O)C4)c3)nn2)CC1 [Example 594, (S)-6-(((1-(1-(tert-butyl)piperidin-4-yl)-1H-1,2,3-triazol-4-yl)(3-(3-hydroxyazetidine-1-carbonyl)phenyl)methyl)amino)-8-chloro-4-((3-chloro-4-fluorophenyl)amino)quinoline-3-carbonitrile]
